For 12 molecules, MIC results are on record in ChEMBL document CHEMBL1129922, “Preparation and antibacterial activity of pyridopyridone analogs: C-1 modifications” (1997).

In general, MIC refers to the least concentration at which growth counts as inhibited. Lower therefore signals a more susceptible organism.

In brackets after ≈: the same amount, converted by molar mass. Bounds are passed on as bounds.

Holding throughout (assay type): functional
For assay [1], the system named is Staphylococcus aureus. Kind of assay: In vitro antibacterial activity against Staphylococcus aureus NCTC 10649M organism expressed as minimum inhibitory concentration (MIC).
A further assay relates to Streptococcus pyogenes. Kind of assay: In vitro antibacterial activity against Streptococcus pyogenes 930 organism, activity expressed as minimum inhibitory concentration (MIC).
For assay [2], the system named is Staphylococcus aureus. The assay can be described thus: In vitro antibacterial activity against Staphylococcus aureus 1775 organism expressed as minimum inhibitory concentration (MIC).
The subject of another assay is Escherichia coli. Kind of assay: In vitro antibacterial activity against Escherichia coli juhl organism, activity expressed as minimum inhibitory concentration (MIC).
In a further assay the test system is Enterococcus faecium. The assay can be described thus: In vitro antibacterial activity against Enterococcus faecium ATCC 8043 organism, activity expressed as minimum inhibitory concentration (MIC).
For another assay, the system named is Pseudomonas aeruginosa. The assay can be described thus: In vitro antibacterial activity against Pseudomonas aeruginosa K799/WT organism, activity expressed as minimum inhibitory concentration (MIC).

On to `C=Cc1cc(C(=O)O)c(=O)n2cc(F)c(N3CC[C@H](N)C3)c(C)c12`, for which the MIC against Staphylococcus aureus [1] was 0.78 µg/mL (≈ 2.35 µM); against Streptococcus pyogenes, 1.56 µg/mL (≈ 4.71 µM); in the assay with Staphylococcus aureus [2], above 100 µg/mL; in the assay with Escherichia coli, 0.2 µg/mL (≈ 0.604 µM); against Enterococcus faecium it was 1.56 µg/mL (≈ 4.71 µM); in the assay with Pseudomonas aeruginosa, 0.78 µg/mL (≈ 2.35 µM).
For `Cc1c(N2CC[C@H](N)C2)c(F)cn2c(=O)c(C(=O)O)cc(CC(C)(C)C)c12`, the MIC against Staphylococcus aureus [1] amounted to 1.56 µg/mL (≈ 4.16 µM); in the assay with Streptococcus pyogenes it was 3.1 µg/mL (≈ 8.26 µM); against Staphylococcus aureus [2], 50 µg/mL (≈ 133 µM); against Enterococcus faecium, 6.2 µg/mL (≈ 16.5 µM); against Pseudomonas aeruginosa, 12.5 µg/mL (≈ 33.3 µM).
As for `Cc1c(N2CC[C@H](N)C2)c(F)cn2c(=O)c(C(=O)O)cc(CC3CC3)c12`, the MIC against Staphylococcus aureus [1] came to 1.56 µg/mL (≈ 4.34 µM); in the assay on Streptococcus pyogenes, 6.2 µg/mL (≈ 17.3 µM); with Staphylococcus aureus [2] it was 25 µg/mL (≈ 69.6 µM); in the assay with Escherichia coli it was 0.78 µg/mL (≈ 2.17 µM); against Enterococcus faecium it was 6.2 µg/mL (≈ 17.3 µM); with Pseudomonas aeruginosa it was 12.5 µg/mL (≈ 34.8 µM).
Regarding `Cc1cc(C(=O)O)c(=O)n2cc(F)c(N3CC[C@H](N)C3)c(C)c12`, the minimum inhibitory concentration (MIC) was determined as 0.1 µg/mL (≈ 0.313 µM) in the assay on Staphylococcus aureus [1]; 0.39 µg/mL (≈ 1.22 µM) against Streptococcus pyogenes; 12.5 µg/mL (≈ 39.1 µM) against Staphylococcus aureus [2]; 0.05 µg/mL (≈ 0.157 µM) in the assay with Escherichia coli; 0.39 µg/mL (≈ 1.22 µM) with Enterococcus faecium; 3.1 µg/mL (≈ 9.71 µM) in the assay with Pseudomonas aeruginosa.
In the case of `Cc1c(N2CC[C@H](N)C2)c(F)cn2c(=O)c(C(=O)O)cc(C3CCC3)c12`, the MIC with Staphylococcus aureus [1] was determined as 0.1 µg/mL (≈ 0.278 µM); against Streptococcus pyogenes it was 0.39 µg/mL (≈ 1.09 µM); in the assay on Staphylococcus aureus [2], 12.5 µg/mL (≈ 34.8 µM); against Escherichia coli it was 0.05 µg/mL (≈ 0.139 µM); with Enterococcus faecium it was 0.39 µg/mL (≈ 1.09 µM); against Pseudomonas aeruginosa it was 3.1 µg/mL (≈ 8.63 µM).
Take `COCCc1cc(C(=O)O)c(=O)n2cc(F)c(N3CC[C@H](N)C3)c(C)c12`: the minimum inhibitory concentration (MIC) against Staphylococcus aureus [1] was 50 µg/mL (≈ 138 µM); against Staphylococcus aureus [2], above 100 µg/mL; with Escherichia coli it was 12.5 µg/mL (≈ 34.4 µM); against Enterococcus faecium, above 100 µg/mL; against Pseudomonas aeruginosa, 100 µg/mL (≈ 275 µM).
As for `CCC(C)c1cc(C(=O)O)c(=O)n2cc(F)c(N3CC[C@H](N)C3)c(C)c12` (stereo not given in full), the MIC against Staphylococcus aureus [1] was 6.2 µg/mL (≈ 17.2 µM); in the assay with Streptococcus pyogenes, 50 µg/mL (≈ 138 µM); in the assay on Staphylococcus aureus [2] it was above 100 µg/mL; against Escherichia coli, 1.56 µg/mL (≈ 4.32 µM); against Enterococcus faecium, 12.5 µg/mL (≈ 34.6 µM); with Pseudomonas aeruginosa it was 50 µg/mL (≈ 138 µM).
Take `Cc1c(N2CC[C@H](N)C2)c(F)cn2c(=O)c(C(=O)O)cc(C3CCCC3)c12`: the minimal inhibitory concentration (MIC) worked out at 3.1 µg/mL (≈ 8.3 µM) in the assay on Staphylococcus aureus [1]; 12.5 µg/mL (≈ 33.5 µM) against Streptococcus pyogenes; 50 µg/mL (≈ 134 µM) in the assay with Staphylococcus aureus [2]; 0.78 µg/mL (≈ 2.09 µM) with Escherichia coli; 12.5 µg/mL (≈ 33.5 µM) against Enterococcus faecium; 25 µg/mL (≈ 66.9 µM) against Pseudomonas aeruginosa.
Take `C=CCc1cc(C(=O)O)c(=O)n2cc(F)c(N3CC[C@H](N)C3)c(C)c12`: the MIC is 0.78 µg/mL (≈ 2.26 µM) against Staphylococcus aureus [1]; 1.56 µg/mL (≈ 4.52 µM) against Streptococcus pyogenes; above 100 µg/mL in the assay with Staphylococcus aureus [2]; 1.56 µg/mL (≈ 4.52 µM) in the assay with Escherichia coli; 1.56 µg/mL (≈ 4.52 µM) against Enterococcus faecium; 3.1 µg/mL (≈ 8.98 µM) with Pseudomonas aeruginosa.
For `Cc1c(N2CC[C@H](N)C2)c(F)cn2c(=O)c(C(=O)O)cc(C(C)C)c12`, the minimal inhibitory concentration (MIC) in the assay with Staphylococcus aureus [1] was found to be 0.1 µg/mL (≈ 0.288 µM); against Streptococcus pyogenes it was 0.2 µg/mL (≈ 0.576 µM); in the assay on Staphylococcus aureus [2], 6.2 µg/mL (≈ 17.8 µM); against Escherichia coli, 0.39 µg/mL (≈ 1.12 µM); with Enterococcus faecium, 0.2 µg/mL (≈ 0.576 µM); in the assay on Pseudomonas aeruginosa, 1.56 µg/mL (≈ 4.49 µM).
With `Cc1c(N2CC[C@H](N)C2)c(F)cn2c(=O)c(C(=O)O)ccc12`, the MIC in the assay on Staphylococcus aureus [1] is 3.1 µg/mL (≈ 10.2 µM); in the assay with Streptococcus pyogenes it was 12.5 µg/mL (≈ 40.9 µM); in the assay with Staphylococcus aureus [2] it was above 100 µg/mL; against Escherichia coli, 0.39 µg/mL (≈ 1.28 µM); against Enterococcus faecium, 25 µg/mL (≈ 81.9 µM); with Pseudomonas aeruginosa, 6.2 µg/mL (≈ 20.3 µM).
Regarding `Cc1c(N2CC[C@H](N)C2)c(F)cn2c(=O)c(C(=O)O)cc(C3CC3)c12` [ABT-719], the minimal inhibitory concentration (MIC) is 0.01 µg/mL (≈ 0.029 µM) against Staphylococcus aureus [1]; 0.02 µg/mL (≈ 0.0579 µM) against Streptococcus pyogenes; 0.78 µg/mL (≈ 2.26 µM) against Staphylococcus aureus [2]; 0.01 µg/mL (≈ 0.029 µM) in the assay with Escherichia coli; 0.02 µg/mL (≈ 0.0579 µM) against Enterococcus faecium; 0.05 µg/mL (≈ 0.145 µM) in the assay with Pseudomonas aeruginosa.
